Test: molar heat capacity at constant pressure
Settings: 101.33 kPa, Crystal 2, Small sample (50 mg) DSC

O=[Si]=O [silicon dioxide]
Settings | molar heat capacity at constant pressure [J/K/mol]
285 K | 43.21
290 K | 43.7
295 K | 44.22
300 K | 44.74
305 K | 45.21
310 K | 45.69
315 K | 46.16
320 K | 46.62
325 K | 47.09
330 K | 47.56
335 K | 48.02
340 K | 48.49
345 K | 48.94
350 K | 49.39
355 K | 49.78
360 K | 50.22
365 K | 50.62
370 K | 51.02
375 K | 51.38
380 K | 51.76
385 K | 52.15
390 K | 52.52
395 K | 52.89
400 K | 53.25
405 K | 53.61
410 K | 53.99
415 K | 54.34
420 K | 54.7
425 K | 55.03
430 K | 55.38
435 K | 55.74
440 K | 56.07
445 K | 56.42
450 K | 56.75
455 K | 57.1
460 K | 57.4
465 K | 57.69
470 K | 58.01
475 K | 58.29
480 K | 58.59
485 K | 58.87
490 K | 59.12
495 K | 59.37
500 K | 59.63
505 K | 59.91
510 K | 60.16
515 K | 60.41
520 K | 60.66
525 K | 60.91
530 K | 61.15
535 K | 61.41
540 K | 61.66
545 K | 61.92
550 K | 62.19
555 K | 62.45
560 K | 62.73
565 K | 63.01
570 K | 63.26
575 K | 63.49
580 K | 63.74
585 K | 64.01
590 K | 64.24
595 K | 64.46
600 K | 64.69
605 K | 64.89
610 K | 65.09
615 K | 65.3
620 K | 65.5
625 K | 65.73
630 K | 65.97
635 K | 66.17
640 K | 66.38
645 K | 66.62
650 K | 66.84
655 K | 67.01
660 K | 67.18
665 K | 67.38
670 K | 67.57
675 K | 67.75
680 K | 67.94
685 K | 68.16
690 K | 68.35
695 K | 68.56
700 K | 68.75
705 K | 68.95
710 K | 69.14
715 K | 69.35
720 K | 69.58
725 K | 69.69
730 K | 69.83
735 K | 70
740 K | 70.22
745 K | 70.45
750 K | 70.72
755 K | 71
760 K | 71.26
780.95 K | 71.65
781.12 K | 71.67
781.28 K | 71.59
781.45 K | 71.55
781.61 K | 71.6
781.78 K | 71.49
781.94 K | 71.36
782.11 K | 71.45
782.28 K | 71.45
782.45 K | 71.54
782.62 K | 71.57
782.78 K | 71.51
782.95 K | 71.6
783.12 K | 71.5
783.28 K | 71.3
783.45 K | 71.26
783.62 K | 71.08
783.78 K | 71.24
783.95 K | 71.41
784.12 K | 71.45
784.28 K | 71.52
784.45 K | 71.54
784.62 K | 71.49
784.78 K | 71.52
784.95 K | 71.46
785.12 K | 71.45
785.28 K | 71.49
785.45 K | 71.49
785.62 K | 71.49
785.79 K | 71.54
785.95 K | 71.6
786.12 K | 71.72
786.29 K | 71.77
786.45 K | 71.65
786.62 K | 71.5
786.78 K | 71.36
786.95 K | 71.21
787.12 K | 71.35
787.29 K | 71.46
787.46 K | 71.52
787.62 K | 71.51
787.78 K | 71.6
787.95 K | 71.68
788.12 K | 71.69
788.28 K | 71.59
788.45 K | 71.56
788.62 K | 71.65
788.79 K | 71.81
788.95 K | 71.75
789.12 K | 71.7
789.29 K | 71.78
789.45 K | 71.82
789.62 K | 71.7
789.79 K | 71.66
789.95 K | 71.68
790.12 K | 71.65
790.28 K | 71.4
790.45 K | 71.28
790.62 K | 71.32
790.78 K | 71.49
790.95 K | 71.6
791.12 K | 71.65
791.29 K | 71.82
791.45 K | 71.83
791.62 K | 71.77
791.79 K | 71.7
791.95 K | 71.64
792.12 K | 71.58
792.29 K | 71.65
792.45 K | 71.69
792.61 K | 71.77
792.78 K | 71.83
792.95 K | 71.78
793.12 K | 71.69
793.28 K | 71.67
793.45 K | 71.75
793.61 K | 71.63
793.78 K | 71.65
793.95 K | 71.8
794.12 K | 71.75
794.29 K | 71.74
794.45 K | 71.73
